Test results from patent US8084621B2, “3-Pyrrolo[b]cyclohexylene-2-dihydroindolinone derivatives and uses thereof” (Jiangsu Simcere Pharmaceutical R&D Co. Ltd., priority 2006, dated 2011).

Target: T1, VEGFR-2 (Homo sapiens, UniProt P35968)
T1 construct: purchased Cell Signaling Technology CO
Assay: Protein kinase activity by ELISA in vitro, VEGFR-2
Format: biochemical
Details: read-out: IC50 of the VEGF Receptor Kinase
Method: An ELISA (Enzyme-Linked Immunosorbent Sandwich Assay) procedure may be used to detect and measure the level of protein tyrosine kinase activity. […] According to the principle of ELISA, a monoclonal antibody can react with phosphorylated substrate specially, so biotin-labeled substrate is binded to streptavidin-coated ELISA plate, and then binded to a HRP-labeled goat anti-mouse antibody. Finally TMB is added for a color reaction and the value of A450-A630 is read by ELISA plate reader. The OD value can reflect the inhibitory activity of the VEGFR-2, PDGFR-β, c-Kit tyrosine kinases etc. treated with the test compounds at the different concentrations. So, the assay may be used to measure the inhibition ratio of the compounds for the tyrosine kinase activity. Similar assays can be designed along the same lines for any PK using techniques well known in the art.
According to the principle of ELISA, a monoclonal antibody can react with phosphorylated substrate specially, so biotin-labeled substrate is binded to streptavidin-coated ELISA plate, and then binded to a HRP-labeled goat anti-mouse antibody. Finally TMB is added for a color reaction and the value of A450-A630 is read by ELISA plate reader. The OD value can reflect the inhibitory activity of the VEGFR-2, PDGFR-β c-Kit tyrosine kinases treated with the test compounds at the different concentrations. So, the assay may be used to measure the inhibition ratio of the compounds for the tyrosine kinase activity. Similar assays can be designed along the same lines for any PK using techniques well known in the art.
VEGF Receptor 2, PDGF Receptor-beta and c-kit kinase assay kit (include kinase, 1.25M DTT, substrate peptide, 10 mM ATP, P-Tyr-100 Mouse antibody, 4×HTScan tyrosine kinase buffer), Cell Signaling Technology CO.; HRP labeled goat anti mouse IgG, Protein Tech CO.; TMB, Pierce CO.; Streptavidin Microtitration Plate, Greiner Bio-one CO.; Infinite M200 Reader, Tecan CO.
1.2.1 Immediately transfer enzyme from −80° C. to ice. Allow enzyme to thaw on ice then at 4° C. and centrifugate transiently to the bottom of centrifuge tube, then lay back on ice quickly
1.2.2 Add 10 μl of DTT (1.25 M) to 2.5 ml of 4×HTScan tyrosine kinase buffer (240 mM HEPES pH 7.5, 20 mM MgCl2, 20 mM MnCl2, 12 μM Na3VO4). Transfer 0.6 ml of DTT/Kinase buffer to each enzyme tube to make 4× reaction Cocktail. Incubate 12.5 μl of the 4× reaction cocktail with 12.5 μl/well prediluted compound of interest for 5 minutes at room temperature, and set blank control, free-enzyme control, negative control and positive control. 1.2.3 Add 10 μl 10 mM ATP to 1.25 ml 6 μM substrate peptide. Dilute the mixture with dH20 to 2.5 ml to make 2×ATP/substrate cocktail. Add 25 μl of 2×ATP/substrate cocktail to 25 μl/well preincubated reaction cocktail/compound. Incubate reaction plate at room temperature for 30 minutes. 1.2.4 Add 50 μl/well stop Buffer (50 mM EDTA, pH 8) to stop the reaction. Transfer 25 μl of each reaction and 75 μl dH2O/well to a 96-well streptavidin coated plate and incubate at room temperature for 60 minutes. Wash three times with 200 μl/well PBS/T(1×PBS, 0.05% Tween-20). 1.2.5 Dilute primary antibody, Phospho-Tyrosine mAb (P-Tyr-100), 1:500 in PBS/T with 1% BSA. Add 100 μl/well primary antibody. Incubate at room temperature for 60 minutes. Wash three times with 200 μl/well PBS/T(1×PBS, 0.05% Tween-20). 1.2.6 Prepare appropriate dilution of HRP labeled secondary antibody, 1:500 in PBS/T with 1% BSA. Add 100 μl/well secondary antibody solution. Incubate at room temperature for 30 minutes. Wash five times with 200 μl/well PBS/T 1.2.7 Add 100 μl/well TMB substrate and incubate at room temperature for 1-10 minutes. Add 50 μl 2M H2SO4 to stop the color reaction. Read the absorbance of A450-A630 with the Infinite M200 microtiter plate reader. 1.2.8 Calculate the inhibition ratio with the following formula: […]

T1 sequence (P35968 20-1356): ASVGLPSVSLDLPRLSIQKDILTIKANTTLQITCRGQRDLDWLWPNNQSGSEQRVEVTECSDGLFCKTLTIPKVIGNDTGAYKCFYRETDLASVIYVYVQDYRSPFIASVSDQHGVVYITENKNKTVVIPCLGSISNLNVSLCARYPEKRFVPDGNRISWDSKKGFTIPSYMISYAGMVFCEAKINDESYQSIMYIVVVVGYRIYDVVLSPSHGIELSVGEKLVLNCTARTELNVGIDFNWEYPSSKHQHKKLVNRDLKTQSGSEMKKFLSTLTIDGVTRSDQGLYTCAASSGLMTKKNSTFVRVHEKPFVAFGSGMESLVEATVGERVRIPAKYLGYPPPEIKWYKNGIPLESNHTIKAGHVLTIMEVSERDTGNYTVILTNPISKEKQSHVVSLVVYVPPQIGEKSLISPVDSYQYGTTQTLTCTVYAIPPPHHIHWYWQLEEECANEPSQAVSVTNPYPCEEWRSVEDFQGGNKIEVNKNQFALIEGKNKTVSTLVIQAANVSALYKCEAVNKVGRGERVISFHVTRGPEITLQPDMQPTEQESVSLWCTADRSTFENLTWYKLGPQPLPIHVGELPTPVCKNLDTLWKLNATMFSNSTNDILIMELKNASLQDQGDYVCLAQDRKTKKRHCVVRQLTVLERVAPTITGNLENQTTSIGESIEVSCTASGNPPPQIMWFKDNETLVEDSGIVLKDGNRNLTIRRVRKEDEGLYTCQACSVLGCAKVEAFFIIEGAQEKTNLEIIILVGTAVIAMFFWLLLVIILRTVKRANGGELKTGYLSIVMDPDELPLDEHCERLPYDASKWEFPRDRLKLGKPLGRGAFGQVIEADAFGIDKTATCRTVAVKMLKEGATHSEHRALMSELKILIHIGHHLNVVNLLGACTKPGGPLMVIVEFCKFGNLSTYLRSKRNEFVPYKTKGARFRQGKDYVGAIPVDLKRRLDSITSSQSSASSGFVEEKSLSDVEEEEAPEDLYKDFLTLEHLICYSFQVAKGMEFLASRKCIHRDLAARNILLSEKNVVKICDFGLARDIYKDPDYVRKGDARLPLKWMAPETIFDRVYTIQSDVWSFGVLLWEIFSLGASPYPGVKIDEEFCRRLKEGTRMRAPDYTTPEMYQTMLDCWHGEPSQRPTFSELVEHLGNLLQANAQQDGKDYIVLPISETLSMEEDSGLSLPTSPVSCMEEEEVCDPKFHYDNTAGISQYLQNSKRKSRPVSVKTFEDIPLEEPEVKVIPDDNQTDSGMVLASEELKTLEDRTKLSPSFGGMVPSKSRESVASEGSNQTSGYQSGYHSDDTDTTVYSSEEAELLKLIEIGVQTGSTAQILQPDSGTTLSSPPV

Cc1[nH]c2c(c1C(=O)NCCc1ccccn1)CCC/C2=C1/C(=O)Nc2ccc(F)cc21 [I-56, N-(2-(pyridin-2-yl)ethyl)-2-methyl-7-[1,2-dihydro-5-fluoro-2-oxo-3H-indol-(Z)-3-ylidene]-4,5,6,7-tetrahydro-1H-indole-3-carboxamide]
IC50: 17 nM

Cc1[nH]c2c(c1C(=O)NCCN1CCCCC1)CCC/C2=C1/C(=O)Nc2ccc(F)cc21 [I-26, N-(2-(piperidin-1-yl)ethyl)-2-methyl-7-[1,2-dihydro-5-fluoro-2-oxo-3H-indol-(Z)-3-ylidene]-4,5,6,7-tetrahydro-1H-indole-3-carboxamide]
IC50: 9.1 nM

Cc1[nH]c2c(c1C(=O)NCCCN1CCOCC1)CCC/C2=C1/C(=O)Nc2ccc(F)cc21 [I-21, N-(3-morpholinopropyl)-2-methyl-7-[1,2-dihydro-5-fluoro-2-oxo-3H-indol-(Z)-3-ylidene]-4,5,6,7-tetrahydro-1H-indole-3-carboxamide]
IC50: 27 nM

CCN(CC)CCNC(=O)c1c(C)[nH]c2c1CCC/C2=C1/C(=O)Nc2ccc(OC)cc21 [I-53, N-(2-(diethylamino)ethyl)-2-methyl-7-[1,2-dihydro-5-methoxy-2-oxo-3H-indol-(Z)-3-ylidene]-4,5,6,7-tetrahydro-1H-indole-3-carboxamide]
IC50: 13 nM

CCN(CC)CCNC(=O)c1c(C)[nH]c2c1CCC/C2=C1/C(=O)Nc2cc(Cl)ccc21 [I-46, N-(2-(diethylamino)ethyl)-2-methyl-7-[1,2-dihydro-6-chloro-2-oxo-3H-indol-(Z)-3-ylidene]-4,5,6,7-tetrahydro-1H-indole-3-carboxamide]
IC50: 11 nM

CCN(CC)CCNC(=O)c1c(C)[nH]c2c1CCC/C2=C1/C(=O)Nc2c(C)cc(C)cc21 [I-34, N-(2-(diethylamino)ethyl)-2-methyl-7-[1,2-dihydro-5,7-dimethyl-2-oxo-3H-indol-(Z)-3-ylidene]-4,5,6,7-tetrahydro-1H-indole-3-carboxamide]
IC50: 11 nM

CCN(CC)CCNC(=O)c1c(C)[nH]c2c1CCC/C2=C1/C(=O)Nc2ccc(C(=O)O)cc21 [I-44, N-(2-(diethylamino)ethyl)-2-methyl-7-[1,2-dihydro-5-carboxyl-2-oxo-3H-indol-(Z)-3-ylidene]-4,5,6,7-tetrahydro-1H-indole-3-carboxamide]
IC50: 6.8 nM

Cc1[nH]c2c(c1C(=O)NCCN1CCOCC1)CCC/C2=C1/C(=O)Nc2ccc(Cl)cc21 [I-19, N-(2-morpholinoethyl)-2-methyl-7-[1,2-dihydro-5-chloro-2-oxo-3H-indol-(Z)-3-ylidene]-4,5,6,7-tetrahydro-1H-indole-3-carboxamide]
IC50: 31 nM

CCN(CC)CCNC(=O)c1c(C)[nH]c2c1CCC/C2=C1/C(=O)Nc2ccc(C(=O)Nc3ccc(F)cc3)cc21 [I-51, N-(2-(diethylamino)ethyl)-2-methyl-7-[N-(4-fluorophenyl)-5-carboxamide-1,2-dihydro-2-oxo-3H-indol-(Z)-3-ylidene]-4,5,6,7-tetrahydro-1H-indole-3-carboxamide]
IC50: 54 nM

CCN(CC)CCNC(=O)c1c(C)[nH]c2c1CCC/C2=C1/C(=O)Nc2ccc(S(=O)(=O)NC)cc21 [I-55, N-(2-(diethylamino)ethyl)-2-methyl-7-[N-methyl-1,2-dihydro-2-oxo-3H-indol-5-sulfonamide-(Z)-3-ylidene]-4,5,6,7-tetrahydro-1H-indole-3-carboxamide]
IC50: 19 nM

CCN(CC)CCNC(=O)c1c(C)[nH]c2c1CCC/C2=C1/C(=O)Nc2cccc(F)c21 [I-49, N-(2-(diethylamino)ethyl)-2-methyl-7-[1,2-dihydro-4-fluoro-2-oxo-3H-indol-(Z)-3-ylidene]-4,5,6,7-tetrahydro-1H-indole-3-carboxamide]
IC50: 12 nM

CCN(CC)CCNC(=O)c1c(C)[nH]c2c1CCC/C2=C1/C(=O)Nc2c(F)cccc21 [I-40, N-(2-(diethylamino)ethyl)-2-methyl-7-[1,2-dihydro-7-fluoro-2-oxo-3H-indol-(Z)-3-ylidene]-4,5,6,7-tetrahydro-1H-indole-3-carboxamide]
IC50: 82 nM

CCN(CC)CCNC(=O)c1c(C)[nH]c2c1CCC/C2=C1/C(=O)Nc2ccc(NC(C)=O)cc21 [I-45]
IC50: 8 nM

Cc1[nH]c2c(c1C(=O)N1CCC[C@H]1CN1CCCC1)CCC/C2=C1/C(=O)Nc2ccc(F)cc21 [I-60]
IC50: 14 nM

Cc1[nH]c2c(c1C(=O)N(C)CCN(C)C)CCC/C2=C1/C(=O)Nc2ccc(F)cc21 [I-57, N-(2-(dimethylamino)ethyl)-N,2-dimethyl-7-[1,2-dihydro-5-fluoro-2-oxo-3H-indol-(Z)-3-ylidene]-4,5,6,7-tetrahydro-1H-indole-3-carboxamide]
IC50: 13 nM

CCN(CC)CCNC(=O)c1c(C)[nH]c2c1CCC/C2=C1/C(=O)Nc2ccc(Br)cc21 [I-36, N-(2-(diethylamino)ethyl)-2-methyl-7-[1,2-dihydro-5-bromo-2-oxo-3H-indol-(Z)-3-ylidene]-4,5,6,7-tetrahydro-1H-indole-3-carboxamide]
IC50: 6.3 nM
